Among the test systems are OVCAR-5 ovarian; SW-620 colon; HL-60(TB) leukemia; SK-MEL-2 melanoma; OVCAR-4 ovarian; A549 NSCLC; MDA-MB-231 breast; T-47D breast.
What all share (assay): NCI anticancer screen, dose series, 48 h

Several values for one entry are separate records, joined by “and”; a condition that tells them apart may be missing. Equal values may be shown once.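 All cell lines were grown in 96-well plates and treated with compound for 48 hours. The concentration for 50% growth inhibition is given as GI50. The concentration for full growth arrest is given as TGI.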

Turning to `COc1ccc(C2c3c(-c4ccccc4)nn(-c4ccccc4)c3Oc3ncn4nc(CC#N)nc4c32)cc1OC` (stereo not drawn), the TGI with OVCAR-5 ovarian is > 100 µM and 13.8 µM; in the assay with SW-620 colon, above 100 µM; with HL-60(TB) leukemia, above 100 µM; with SK-MEL-2 melanoma, > 100 µM and 47.3 µM; with OVCAR-4 ovarian, 65.9 µM and 7.38 µM; in the assay with A549 NSCLC it was > 100 µM and 68.1 µM. Moreover, the TGI was 22.8 µM and 4.68 µM with MDA-MB-231 breast; above 54 µM in the assay with T-47D breast. Further, the GI50 with SW-620 colon is 24.2 µM and > 82.3 µM; with HL-60(TB) leukemia it was 30.4 µM and > 100 µM; in the assay on A549 NSCLC, > 100 µM and 13.7 µM; in the assay on MDA-MB-231 breast, 9.03 µM and 1.77 µM.
For the molecule `Nc1c2ccccc2nc2ccccc12` (tested in a mixture with another compound), the GI50 with OVCAR-5 ovarian is 2.96 µM; in the assay on SW-620 colon it was 1.44 µM; with HL-60(TB) leukemia it was 3.24 µM; in the assay with SK-MEL-2 melanoma, 2.16 µM; in the assay on OVCAR-4 ovarian it was 1840 nM; in the assay on MDA-MB-231 breast, 1.5 µM. The GI50 in the assay on T-47D breast was 1.87 µM. In addition, the TGI stood at 13.4 µM with OVCAR-5 ovarian; 10.1 µM in the assay with SW-620 colon; 8.04 µM in the assay with HL-60(TB) leukemia; 4.23 µM in the assay on SK-MEL-2 melanoma; 6.9 µM in the assay on OVCAR-4 ovarian; 5.84 µM in the assay on MDA-MB-231 breast. This molecule also had a TGI in the assay on T-47D breast of 5.98 µM.
On to `CC#CC(=O)N1CC[C@@H](n2c(=O)n(-c3ccc(Oc4ccccc4)cc3)c3c(N)ncnc32)C1`, for which the GI50 with OVCAR-5 ovarian is 46.6 µM; in the assay with SW-620 colon, 47.6 µM; in the assay with HL-60(TB) leukemia, 23.5 µM; in the assay on SK-MEL-2 melanoma, 38.8 µM; in the assay with OVCAR-4 ovarian, 20400 nM; with A549 NSCLC it was 55 µM. The GI50 with MDA-MB-231 breast was 19.5 µM; in the assay on T-47D breast, 12.2 µM. Also, the TGI is above 100 µM with OVCAR-5 ovarian; above 100 µM in the assay with SW-620 colon; 77.4 µM in the assay on HL-60(TB) leukemia; above 100 µM in the assay on SK-MEL-2 melanoma; above 100 µM in the assay with OVCAR-4 ovarian; above 100 µM in the assay with A549 NSCLC. Also, the TGI in the assay with MDA-MB-231 breast came to 72.6 µM; in the assay on T-47D breast, 62.9 µM.
For `Fc1cccc(-c2[nH]nc3nc(Nc4cccnc4)sc23)c1`, the GI50 was above 100 µM in the assay with OVCAR-5 ovarian; 35.6 µM in the assay with SW-620 colon; 1.24 µM in the assay with HL-60(TB) leukemia; 42.2 µM in the assay on SK-MEL-2 melanoma; 16100 nM in the assay with OVCAR-4 ovarian; 4.18 µM with A549 NSCLC. Besides, the GI50 was 35.2 µM with MDA-MB-231 breast and 8.69 µM in the assay with T-47D breast. The TGI in the assay with OVCAR-5 ovarian, in the assay on SW-620 colon, with HL-60(TB) leukemia, in the assay with SK-MEL-2 melanoma, in the assay on OVCAR-4 ovarian and with A549 NSCLC was above 100 µM throughout. In addition, the TGI in the assay with MDA-MB-231 breast and in the assay on T-47D breast was above 100 µM each time.
In the case of `Cc1ccc2c(c1)C=CC(C#N)N2C(=O)Oc1ccccc1` (stereo not drawn), the TGI was above 100 µM in the assay on OVCAR-5 ovarian; above 100 µM in the assay with SW-620 colon; 50.5 µM in the assay on HL-60(TB) leukemia; 61.9 µM with SK-MEL-2 melanoma; 70.7 µM with OVCAR-4 ovarian; above 100 µM in the assay on A549 NSCLC. Moreover, the TGI in the assay with MDA-MB-231 breast is above 100 µM; with T-47D breast it was 73.8 µM.
With `CC(CN)[C@@H]1CC[C@]2(CO)CC[C@]3(C)[C@H](CC[C@@H]4[C@@]5(C)CCC(N)C(C)(C)[C@@H]5CC[C@]43C)[C@@H]12` (stereo partly drawn), the GI50 in the assay with OVCAR-5 ovarian was 1.85 µM; in the assay on SW-620 colon, 1.8 µM; in the assay on SK-MEL-2 melanoma, 1.93 µM; in the assay with OVCAR-4 ovarian, 1610 nM; with A549 NSCLC it was 1.85 µM; in the assay on MDA-MB-231 breast it was 1.5 µM. For the same molecule, in the assay on T-47D breast, the GI50 was 1.84 µM. Besides, the TGI in the assay with OVCAR-5 ovarian was 3.58 µM; in the assay on SW-620 colon it was 3.43 µM; in the assay with SK-MEL-2 melanoma, 3.6 µM; in the assay with OVCAR-4 ovarian it was 3.16 µM; with A549 NSCLC, 3.29 µM; in the assay on MDA-MB-231 breast it was 3.05 µM. Further, the TGI in the assay on T-47D breast was found to be 3.99 µM.
Turning to `N#Cc1nn(-c2cc(=O)[nH]c3ccc(Br)cc23)c(N)c1C#N`, the GI50 with OVCAR-5 ovarian, with SW-620 colon, with HL-60(TB) leukemia, in the assay on SK-MEL-2 melanoma, in the assay on A549 NSCLC and with MDA-MB-231 breast was above 100 µM throughout. The GI50 with T-47D breast is 6.46 µM. For the same molecule, the TGI in the assay on OVCAR-5 ovarian, in the assay with SW-620 colon, in the assay with HL-60(TB) leukemia, in the assay with SK-MEL-2 melanoma, in the assay with A549 NSCLC and with MDA-MB-231 breast was above 100 µM throughout. The molecule further returned a TGI with T-47D breast above 100 µM.
As for `COc1cc(/C=C2\C[C@H]3[C@@H]4CC=C5C[C@@H](OC(C)=O)CC[C@]5(C)[C@H]4CC[C@]3(C)[C@H]2OC(C)=O)ccc1OCCN1CCCCC1`, the GI50 was 23.4 µM with OVCAR-5 ovarian; 11.2 µM with SW-620 colon; 40.7 µM with HL-60(TB) leukemia; 20.1 µM with SK-MEL-2 melanoma; 19.3 µM in the assay with A549 NSCLC; 11 µM in the assay with MDA-MB-231 breast. Also, in the assay with T-47D breast, the GI50 was above 50 µM. Further, the TGI with OVCAR-5 ovarian is above 50 µM; with SW-620 colon, above 50 µM; in the assay with HL-60(TB) leukemia it was above 50 µM; with SK-MEL-2 melanoma it was above 50 µM; in the assay on A549 NSCLC, above 50 µM; in the assay with MDA-MB-231 breast, 25.4 µM. In addition, in the assay on T-47D breast, the TGI was above 50 µM.
In the case of `C=C(C)[C@@H]1CC[C@]2(C(N)=O)CC[C@]3(C)[C@H](CC[C@@H]4[C@@]5(C)C/C(=C/c6cccnc6)[C@H](O)C(C)(C)[C@@H]5CC[C@]43C)[C@@H]12`, the GI50 is 3.61 µM with OVCAR-5 ovarian; 4.38 µM in the assay on SW-620 colon; 2.69 µM in the assay with HL-60(TB) leukemia; 4.35 µM with SK-MEL-2 melanoma; 3310 nM with OVCAR-4 ovarian; 3.37 µM with A549 NSCLC. Besides, the results for the GI50 with MDA-MB-231 breast and in the assay on T-47D breast were 99.5 µM and 3.38 µM, respectively. Also, the TGI in the assay on OVCAR-5 ovarian was above 100 µM; with SW-620 colon it was above 100 µM; with HL-60(TB) leukemia, 11.2 µM; in the assay with SK-MEL-2 melanoma, 42.9 µM; in the assay on OVCAR-4 ovarian, above 100 µM; in the assay with A549 NSCLC, above 100 µM. The TGI in the assay with MDA-MB-231 breast and in the assay on T-47D breast was above 100 µM in each case.
Take `COc1cnc2c(c1)C(=O)c1c-2n(CCCNC(C)C)c(=O)c2cc([N+](=O)[O-])ccc12`: the GI50 in the assay on OVCAR-5 ovarian is 0.155 µM; with SW-620 colon it was 0.0393 µM; in the assay with HL-60(TB) leukemia it was 0.0336 µM; with SK-MEL-2 melanoma it was 0.195 µM; in the assay with OVCAR-4 ovarian, 179 nM; in the assay with MDA-MB-231 breast, 0.157 µM. In addition, the GI50 in the assay on T-47D breast was 0.0393 µM. Moreover, the TGI in the assay on OVCAR-5 ovarian was found to be 0.624 µM; with SW-620 colon, 0.643 µM; in the assay on HL-60(TB) leukemia, 0.111 µM; in the assay on SK-MEL-2 melanoma, 0.406 µM; in the assay on OVCAR-4 ovarian, 0.807 µM; in the assay on MDA-MB-231 breast it was 0.438 µM. In the assay with T-47D breast, this molecule showed a TGI of 1.14 µM.

The record behind these values is PubChem BioAssay (NCI).
